From patent US11911439B2, “Beta-casein A2 and prevention of inflammation of the bowel” (THE A2 MILK COMPANY LIMITED, priority 2013, dated 2024) come the findings set out here.

The subject of experiment [1] is SH-SY5Y cells. Put plainly: Whole genome mRNA microarray. The note with it: FDR<0.1; for differentially expressed transcripts (DETs): cells treated for 4 hours. In kind it is cell-based, human. On the procedure:
(§1) The changes in SAM/SAH could potentially affect global DNA methylation, influencing the genes involved in various functions. The global DNA methylation levels induced by BCM-7 were investigated using methyl-CpG binding domain (MBD) protein-enriched genome sequencing (MBD-seq) as described previously (Trivedi M., et al., Mol. Pharm. 2014), whereas mRNA translation microarray data was obtained using Agilent V3 microarray chip, from non-treated control SH-SY5Y cells and cells treated for 4 hours with 1 μM BCM-7.
For whole genome microarray hybridisations, 500 ng of total RNA from each sample was labelled with fluorescent dye (Cy3; Amersham Biosciences Corp, Piscataway, NJ) using the Low RNA Input Linear Amplification Labelling kit (Agilent Technologies, Palo Alto, CA) following the manufacturer's protocol. The amount and quality of the fluorescently labelled cRNA was assessed using a NanoDrop ND-1000 spectrophotometer and an Agilent Bioanalyzer. According to manufacturer's specifications, […] of Cy3-labeled cRNA was hybridized to the Agilent Human Whole Genome Oligo Microarray (Agilent Technologies, Inc., Palo Alto, CA) for 17 hrs prior to washing and scanning. Data was extracted from scanned images using Feature Extraction Software (Agilent Technologies, Inc., Palo Alto, CA).
Transcripts included both genes and non-coding RNAs that were differentially methylated/transcribed.

The subject of a further experiment is SH-SY5Y neuronal cells. Put plainly: Intracellular cysteine, GSH and methylation metabolites by HPLC. In kind it is cell-based, human. Here is the method: Briefly, SH-SY5Y neuronal cells were grown to confluence in α-MEM. Media was aspirated and the cells were washed twice with 1 mL of ice cold HBSS. HBSS was aspirated and 0.6 mL ice cold dH2O was added to the cells. The cells were scraped from the flask/dish and suspended in dH2O. The cell suspension was sonicated for 15 s on ice and 100 μL of the suspension was used to determine the protein content. The remaining lysate was added to a microcentrifuge tube and an equal volume of 0.4 N perchloric acid was added, followed by incubation on ice for 5 min. Samples were centrifuged at 5,000×g and the supernatant transferred to new microcentrifuge tubes. 100 μL of sample was added to a conical micro-autosampler vial and kept at 4° C. in the autosampler cooling tray. 10 μL of this sample was injected into the HPLC system.
The separation of redox and methylation pathway metabolites was accomplished using an Agilent Eclipse XDB-C8 analytical column (3×150 mm; 3.5 μm) and an Agilent Eclipse XDB-C8 (4.6×12.5 mm; 5 μm) guard column. Two mobile phases were used: Mobile Phase A was 0% acetonitrile, 25 mM sodium phosphate, 1.4 mM 1-octanesulfonic acid, adjusted to pH 2.65 with phosphoric acid. Mobile Phase B was 50% acetonitrile. The flow rate was initially set at 0.6 mL/min and a step gradient was used: 0-9 min 0% B, 9-19 min 50% B, 19-30 min 50% B. The column was then equilibrated with 5% B for 12 min prior to the next run. Temperature was maintained at 27° C. The electrochemical detector was an ESA CoulArray with BDD Analytical cell Model 5040 and the operating potential was set at 1500 mV. Sample concentrations were determined from the peak areas of metabolites using standard calibration curves and ESA-supplied HPLC software. Sample concentrations were normalised against protein content. In some cases samples were diluted in mobile phase as needed or up to 50 μl of sample was injected to assure that thiol levels were within the range of the standard curve.

The subject of experiment [2] is SH-SY5Y cells. Description: Global DNA methylation by MBD-seq. Type of experiment: cell-based, human. The note with it: after BCM-7 exposure. On the procedure:
as §1
Briefly, genomic DNA was extracted from samples with the Easy DNA kit (Invitrogen K1800-01) using the appropriate protocol for cell lines. Fragmentation was performed on Covaris S2 with the following settings: duty cycle 10%, intensity 5, 200 cycles per burst during 200 sec. Fragments were obtained having an average length of 200 bp. […] DNA with an input from 5-3 3 μg was analysed on the Agilent 2100 using a DNA 1000 chip. […] The concentrations of fragmented and captured DNA were determined on a Fluostar Optima plate reader with the Quant-IT PicoGreen dsDNA Assay Kit (Invitrogen P7589) at 480/520 nm. […]
The Illumina library amplification index protocol was used with the following alterations: 22 μl DNA was used and performed 21 cycles run. […] 1 μl was applied to a Agilent 2100 HS DNA chip and the concentration was determined by smear analysis on the Agilent 2100. […]

Experiment [3] has as its system Caco-2 Gut epithelial cells. The note with it: read-out: IC50 inhibition of cysteine uptake; GI epithelial cells. On the procedure: (§2) Pre-treatment in cells was performed for different time points for 30 min, 4, 24 and 48 h as described previously (Trivedi M., et al.; Mol. Pharm., 2014). Briefly, SH-SY5Y human neuronal cells and Caco-2 Gut epithelial cells were plated in six-well plates and were pretreated with drugs and incubated for various times prior to measuring uptake. Media were aspirated and cells were washed with 600 μL of HBSS at 37° C. Non-radioactive HBSS was aspirated, replaced with 600 μL of 37° C. HBSS containing [^35S]-cysteine, (1 μCi/1 mL), 10 μM unlabelled cysteine and 100 μM DTT, and the cells were incubated for 5 min. The [^35S]-cysteine/HBSS mixture was aspirated and treatment was terminated by two washes with ice-cold HBSS. Cells were then lysed with 600 μL of dH2O, scraped, collected in 1.5 mL microcentrifuge tubes, and sonicated for 10 s. 100 μL of each sample was aliquoted for protein assay. 200 μL of each sample (in triplicate) was aliquoted into scintillation vials with 4 mL of scintillation fluid, vortexed, and counted for radioactivity, normalized against protein content. […] Each * symbol in these Figures indicates a statistically significant difference (p<0.05) compared against the untreated control, and each #symbol indicates a statistically significant difference (p<0.005) compared against the untreated control.

Experiment [4] deals with SH-SY5Y human neuronal cells. Here is the method:
as §2

Experiment [5] relates to colon myeloperoxidase (MPO) activity. Description: Colon MPO activity in rats fed A1/A2 diets. In kind it is in vivo, Wistar rats. On the procedure: (§3) Seventy two weaned (four week old) male Wistar rats were used. Following a 7-day acclimatisation period on a control diet, the rats were fed for either 12 or 60 hours with one of three diets: 100% A1 diet, 100% A2 diet, control diet (n=6 per treatment). The protein component of the diets were derived from skim milk (for the A1 and A2 diets) and on egg white (for the non-milk protein control diet), and were balanced for energy and macronutrient composition (see Table 1). Fifteen minutes before the end of the time period, rats received either naloxone or saline (control) via intra-peritoneal injection, and were then orally gavaged with a non-digestible tracer, titanium dioxide. Faecal and urine samples were collected at 7 time points over the following 24 hours, and stored at −20° C. (faecal) or −80° C. (urine) until they were analysed.
(§4) Colon tissue from the rats fed according to Example 1 was quantified for myeloperoxidase (MPO) activity based on an established method (Grisham, M. B., et al., Methods Enzymol., 1990, 186:729-742). Colon tissue (50 mg) was homogenised, partitioned via centrifugation, ruptured by ultrasonic probe and subjected to a freeze-thaw cycle. Endogenous MPO catalyses H2O2-dependent oxidation of 3,3′,5,5′-tetramethyl-benzidine substrate measured colourimetrically at 562 nm. […]

Experiment [6] has as its system jejunum myeloperoxidase (MPO) activity. Description: Jejunum MPO activity in rats fed A1/A2 diets. Type of experiment: in vivo, Wistar rats. The note with it: on consumption of beta-casein A1. On the procedure: as §3, §4
In this example, tissue samples taken from the jejunum were analysed. […]

The test system of another experiment is colon tissue. Description: Intestinal histology of colon sections. In kind it is in vivo, Wistar rats. The following applies: 60 hour naloxone group, A2-fed versus A1-fed rats, P<0.05. On the procedure:
as §3
The procedure used for measuring change in morphology in the gastrointestinal tract of rats is based on histological evaluation of haemoxylin and eosin stained tissue sections under a light microscope (Knoch, B. et al., J. Nutrigenet. Nutrigenomics, 2009, 2(1):9-28 and Barnett, M. P., BMC Immunol., 2010, 11:39). This method was applied to sections derived from colon tissue of rats fed either the 100% A1 or 100% A2 diets to determine the effects of the beta-casein variants on intestinal inflammation.

The mark [7] stands for this setting: neuronal cells, 30 min, 4 h, 24 h.

The term IC50 denotes the point on the concentration scale where inhibition reaches its midpoint.

Positions count from the first letter of the chain named. Where a SMILES comes first, the peptide text is derived from it.

On to `CC[C@H](C)[C@H](NC(=O)[C@@H]1CCCN1C(=O)CNC(=O)[C@@H]1CCCN1C(=O)[C@H](Cc1ccccc1)NC(=O)[C@@H]1CCCN1C(=O)[C@@H](N)Cc1ccc(O)cc1)C(=O)O` [BCM-7, beta-casomorphin-7] (H-YPFPGPI-OH; N-terminus and C-terminus assumed), for which, in the experiment with SH-SY5Y cells [1], the “DETs shared by both morphine and BCM-7” value came to 501; the “differentially expressed transcripts (DETs)” value was 1,467. The “ratio of SAM/SAH (methylation capacity)” value in the experiment with SH-SY5Y neuronal cells (different time points) is listed as “affected”. Moreover, in the experiment on SH-SY5Y neuronal cells (setting [7]), the GSH levels entry is given as “time-dependent decreases” and the cysteine levels entry is reported as “time-dependent decreases”. The “GSH/GSSG ratio (redox status)” value in the experiment with SH-SY5Y neuronal cells (neuronal cells, over time) was “decreased”. Further, in the experiment with SH-SY5Y cells [2], the “epigenetic status (DNA methylation) of cytokines such as NFkappaB and interleukins such as IL1” value is given as “altered”; the “epigenetic status of the MPO gene” value is recorded as “alters the epigenetic status”. Also, in experiment [3], the IC50 was 15.9 nM. For the same molecule, in experiment [4] (blockade by selective μ-antagonist (CTAP), not by delta antagonist (NTI)), the “receptor mediation of cysteine uptake inhibition” value is “μ-opioid receptor mediated”. In addition, the “time at which inhibition of cysteine uptake was fully developed” value in experiment [4] (neuronal cells and GI epithelial cells (FIG. 6)) came to 30 min. Besides, the IC50 in experiment [4] (read-out: IC50 inhibition of cysteine uptake, neuronal cells) came to 1.31 nM.

As to `CN1CC[C@]23c4c5ccc(O)c4O[C@H]2[C@@H](O)C=C[C@H]3[C@H]1C5` [morphine], in the experiment on SH-SY5Y cells [1], the “DETs shared by both morphine and BCM-7” value worked out at 501; the “differentially expressed transcripts (DETs)” value is recorded as 7,592. The cysteine levels entry in the experiment with SH-SY5Y neuronal cells (setting [7]) was “time-dependent decreases”.

B1: beta-casein A1 (protein, UniProt P02666 16-224, looked up, variant P67H)
Beta-casein: RELEELNVPGEIVESLSSSEESITRINKKIEKFQSEEQQQTEDELQDKIHPFAQTQSLVYPFPGPIHNSLPQNIPPLTQTPVVVPPFLQPEVMGVSKVKEAMAPKHKEMPFPKYPVEPFTESQSLTLTDVENLHLPLPLLQSWMHQPHQPLPPTVMFPPQSVLSLSQSKVLPVPQKAVPYPQRDMPIQAFLLYQEPVLGPVRGPFPIIV
For the molecule B1, in experiment [5] (beta-casein A1-fed rats compared to beta-casein A2-fed rats), the “colon MPO activity” value was “increased”. Besides, the “effect on colon MPO activity in rats treated with naloxone” value in experiment [5] (rats treated with naloxone) was “not observed”. For the same molecule, the “inflammation in the small intestine (jejunum MPO)” value in experiment [6] is recorded as “no observable increase”.

B2: beta-casein A2 (protein, UniProt P02666 16-224, looked up)
Beta-casein: B1 Beta-casein with H67P
notes: any beta-casein having proline at position 67
As to B2, the histology score entry with colon tissue was “significantly higher score”.
